# Patent US20160000796A1, “PHARMACEUTICAL COMPOSITION FOR USE IN PREVENTION OR TREATMENT OF CANCER” (priority 2013, published 2016)
# What was measured:
# [1] = test system: ATL43T (non-virus-producing ATL cell line); assay: Cellular proliferation (MTS assay), ATL43T; type: cell-based
# Method: (§1) Each nucleoside analogue reverse transcriptase inhibitor was added to the medium for cells at a final concentration of 100 μM. Cells were seeded on a 96-well plate at a concentration of 1×10^4 cells/100 μL/well and cultured for 4 hours (Day 0), 48 hours (Day 2) or 96 hours (Day 4). A medium added DMSO (solvent control) alone was used as a control. Cellular proliferation was examined by MTS assay. Specifically, after the cells were cultured for a predetermined time, a reagent for cellular proliferation test, Aqueous One Solution Cell Proliferation (trade name, manufactured by Promega), was added to the cells. Four hours later, absorbance at 490 nm was measured. The cellular proliferation was represented by a ratio relative to that of the control (solvent control) on Day 0 that was regarded as 1.
# (§2) This example used HTLV-1-infected cell lines (non-virus-producing ATL cell lines): ED40515 (−), ED40515 (+), and ATL43T (all were provided by Prof. Michiyuki Maeda who produced the cells); and SYK-11L (+) (prepared in the laboratory of the inventors).
# (§3) The six types of nucleoside analogue reverse transcriptase inhibitors as used in Example 1 were used and cellular proliferation was examined in the same manner as in Example 1. […]
# [2] = test system: HTLV-1-producing cell line, MT2; assay: Cellular proliferation test (MTS assay), MT2; type: cell-based
# Method: HTLV-1-producing cell lines, MT2 (transformant with HTLV-1, JCRB cell No: JCRB1210) and HUT102 (ATL-derived cell line, ATCC No: TIB-162), were used.
# as §1
# Abacavir was added to MT2 and HUT102 used in Example 1 at a concentration of 0 μM (DMSO was added instead of abacavir), 10 μM, 25 μM, 50 μM, 75 μM or 100 μM. The cells were seeded on a 96-well plate at a concentration of 1×10^4 cells/100 μL/well and cultured for 4 hours or 48 hours. […]
# [3] = test system: HOP—62 (lung cancer cell line lacking TDP1 expression); assay: Cellular proliferation (MTS) of lung cancer cell line HOP—62; type: cell-based; details: 100, 200 or 300 μM, 72 hours
# Method: Lung cancer cell lines lacking TDP1 expression, HOP—62 and NCI_H522, were used. NCI_H1299, a lung cancer cell line expressing TDP1, was used as a control. HOP—62 and NCI_H522 were provided by Dr. Pommier (DNA Repair. 2014 January; 13: 1-9).
# Abacavir was added to each of the cell lines at a concentration of 0 μM (DMSO was added instead of abacavir), 100 μM, 200 μM or 300 μM. The cells were seeded on a 96-well plate at a concentration of 3×10^3 cells/100 μL/well and cultured for 4 hours or 72 hours. After the culture of a predetermined time, MTS assay was performed using a reagent for cellular proliferation, test, Aqueous One Solution Cell Proliferation (trade name, manufactured by Promega), in the same manner as in Example 1. The cellular proliferation was represented by a ratio relative to that of the control (solvent control) on Day 0 that was regarded as 100%.
# [4] = test system: Kit225 (non-HTLV-1-infected cell line); assay: Cellular proliferation (MTS assay), Kit225; type: cell-based; details: 100 μM
# Method: as §1
# This example used non-HTLV-1-infected cell lines: Jurkat (cell line derived from human T-cell leukemia, ATCC No: TIB-152), Kit225 (cell line derived from chronic T-cell leukemia, established in the laboratory of the inventors, Blood. 1987 October; 70 (4): 1069-72.), H9 (cell line derived from cutaneous T-cell lymphoma, ATCC No: HTB-176) and SUDHL6 (cell line derived from diffuse B cell lymphoma).
# The six types of nucleoside analogue reverse transcriptase inhibitors as used in Example 1 were used and cellular proliferation was examined in the same manner as in Example 1.
# Rad51, γH2AX and PARP = assay: Induction of DNA repair proteins (immunostaining); type: cell-based; details: ED40515 (−) versus Jurkat; 100 μM; 48 hours
# Method: To an ATL cell line, ED40515 (−), or a non-ATL cell line, Jurkat, DMSO (solvent control) or abacavir was added at a concentration of 100 μM. The cells were cultured for 48 hours. The cells were fixed on slides, immuno-stained for Rad51, γH2AX and PARP, and observed by a fluorescent microscope. At least 70 cells per group were observed and the ratio of cells positive for each protein was calculated. Rad51, which is a homologue of a RecA protein of Escherichia coli, is involved in repair of double-strand DNA break. γH2AX, which is a phosphorylated histone protein, is involved in repair of double-strand DNA break. PARP, which is a poly(ADP-ribose) synthetase, is involved in repair of single-strand DNA break.
# [5] = test system: non-ATL cell line, Jurkat; assay: Cell-cycle analysis by flow cytometry (PI), Jurkat; type: cell-based, human; details: 10 μM or 100 μM, 24 hours
# Method: To an ATL cell line, ED40515 (−), or a non-ATL cell line, Jurkat, DMSO (solvent control), adriamycin (ADR, positive control) or abacavir (10 μM or 100 μM) was added.
# [6] = test system: ED40515 (−) (non-virus-producing ATL cell line); assay: Cellular proliferation (MTS assay), ED40515 (−); type: cell-based
# Method: as §1, §2, §3
# [7] = test system: SYK-11L (+) (non-virus-producing ATL cell line); assay: Cellular proliferation (MTS assay), SYK-11L (+); type: cell-based
# Method: as §1, §2, §3
smiles,measurement,setting,value
"Nc1nc(NC2CC2)c2ncn([C@H]3C=C[C@@H](CO)C3)c2n1 [abacavir, (−)-(1S,4R)-4-[2-amino-6-(cyclopropylamino)-9H-purin-9-yl]-2-cyclopentene-1-methanol]",cellular proliferation,[1]; 100 μM,strong suppressive effect
same,"cellular proliferation, dose dependence","[1]; 10-100 μM, Day 0, 2, 4",suppressed cellular proliferation of all the cell lines in a dose-dependent manner
same,cellular proliferation (ratio relative to solvent control on Day 0),"[2]; 100 μM, Day 0, 2, 4, compared among six NRTIs",most strongly suppressed
same,"cellular proliferation, dose dependence","[2]; 10, 25, 50, 75, 100 μM, 48 hours",suppressed cellular proliferation of both cell lines in a dose-dependent manner
same,cellular proliferation,[3],suppressed cellular proliferation of HOP—62 and NCI_H522 lacking TDP1 expression in a concentration dependent manner
same,cellular proliferation,[4],did not exhibit a suppressive effect
same,ratio of PARP positive cells,"Rad51, γH2AX and PARP","induces Rad51, γH2AX, and PARP specifically in an ATL cell line"
same,ratio of Rad51 positive cells,"Rad51, γH2AX and PARP","induces Rad51, γH2AX, and PARP specifically in an ATL cell line"
same,ratio of γH2AX positive cells,"Rad51, γH2AX and PARP","induces Rad51, γH2AX, and PARP specifically in an ATL cell line"
same,cell cycle (ratio of cells in G0G1/S/G2 phase),[5],did not affect the cell cycle
same,cellular proliferation,[6]; 100 μM,strong suppressive effect
same,"cellular proliferation, dose dependence","[6]; 10-100 μM, Day 0, 2, 4",suppressed cellular proliferation of all the cell lines in a dose-dependent manner
same,cellular proliferation,[7]; 100 μM,strong suppressive effect
same,"cellular proliferation, dose dependence","[7]; 10-100 μM, Day 0, 2, 4",suppressed cellular proliferation of all the cell lines in a dose-dependent manner
